# Calls of active or inactive are those of the source.
# Legend:
# Cytochrome P450 2D6 = Cytochrome P450 2D6 (Homo sapiens, UniProt P10635);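 note: CYP2D6 member of a cytochrome P450 panel assay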
# Cytochrome P450 3A4 = Cytochrome P450 3A4 (Homo sapiens, UniProt P08684);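 note: CYP3A4 tested as one member of a cytochrome P450 panel screen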
# [1] = inhibitors of firefly luciferase expression or activity, dose response, H4 neuroglioma cells, luminescence (AID 1990); format: functional, cell-based
# [2] = Luminescence Cell-Based Dose Response HTS to Identify Inhibitors of 5'UTR Stem-Loop Driven Prion Protein mRNA Translation in H4 Neuroglioblastoma Cells. [Related pubchem assays: 1827 (Project Summary), 1813 (Primary HTS)]; format: functional
# [3] = inhibitors of SNCA 5'UTR-driven reporter translation, confirmation, H4 neuroglioma cells, luminescence (AID 1988); format: functional, cell-based
# Genome polyprotein = Genome polyprotein (dengue virus type 2, UniProt P29990); test: Dengue-2 NS5 methyltransferase inhibitors, primary screen, biochemical, confirmation dose response (AID 588689); format: functional
# Chain of Genome polyprotein (P29990 2492-3391 limits assumed): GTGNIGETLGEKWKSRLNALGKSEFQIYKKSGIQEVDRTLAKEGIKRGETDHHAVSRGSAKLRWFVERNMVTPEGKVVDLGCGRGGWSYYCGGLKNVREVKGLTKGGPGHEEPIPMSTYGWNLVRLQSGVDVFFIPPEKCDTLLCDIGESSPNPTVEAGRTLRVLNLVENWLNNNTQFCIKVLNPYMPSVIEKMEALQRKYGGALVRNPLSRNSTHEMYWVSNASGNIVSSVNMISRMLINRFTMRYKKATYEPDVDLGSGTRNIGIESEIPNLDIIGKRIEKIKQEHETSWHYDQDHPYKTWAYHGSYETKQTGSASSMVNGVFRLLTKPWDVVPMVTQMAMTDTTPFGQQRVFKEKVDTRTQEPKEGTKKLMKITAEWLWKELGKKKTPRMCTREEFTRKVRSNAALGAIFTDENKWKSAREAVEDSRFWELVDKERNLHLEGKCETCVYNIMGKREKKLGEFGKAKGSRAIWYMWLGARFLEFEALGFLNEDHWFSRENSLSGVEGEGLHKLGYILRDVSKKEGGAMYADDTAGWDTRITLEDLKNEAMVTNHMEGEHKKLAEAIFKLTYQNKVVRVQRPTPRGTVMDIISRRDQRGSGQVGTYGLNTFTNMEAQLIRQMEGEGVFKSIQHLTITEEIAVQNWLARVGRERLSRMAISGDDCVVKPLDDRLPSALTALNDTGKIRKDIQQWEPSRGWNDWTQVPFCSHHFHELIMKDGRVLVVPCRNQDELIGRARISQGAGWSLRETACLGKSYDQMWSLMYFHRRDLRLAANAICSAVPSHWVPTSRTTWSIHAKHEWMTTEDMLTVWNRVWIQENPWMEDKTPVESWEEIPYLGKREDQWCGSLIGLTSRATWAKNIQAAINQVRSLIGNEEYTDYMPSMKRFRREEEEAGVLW
# Cytochrome P450 1A2 = molecular target: T1, Cytochrome P450 1A2 (Homo sapiens, UniProt P05177);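 note: PubChem cytochrome P450 panel assay, CYP1A2 panel member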
# T1 sequence (P05177 whole entry): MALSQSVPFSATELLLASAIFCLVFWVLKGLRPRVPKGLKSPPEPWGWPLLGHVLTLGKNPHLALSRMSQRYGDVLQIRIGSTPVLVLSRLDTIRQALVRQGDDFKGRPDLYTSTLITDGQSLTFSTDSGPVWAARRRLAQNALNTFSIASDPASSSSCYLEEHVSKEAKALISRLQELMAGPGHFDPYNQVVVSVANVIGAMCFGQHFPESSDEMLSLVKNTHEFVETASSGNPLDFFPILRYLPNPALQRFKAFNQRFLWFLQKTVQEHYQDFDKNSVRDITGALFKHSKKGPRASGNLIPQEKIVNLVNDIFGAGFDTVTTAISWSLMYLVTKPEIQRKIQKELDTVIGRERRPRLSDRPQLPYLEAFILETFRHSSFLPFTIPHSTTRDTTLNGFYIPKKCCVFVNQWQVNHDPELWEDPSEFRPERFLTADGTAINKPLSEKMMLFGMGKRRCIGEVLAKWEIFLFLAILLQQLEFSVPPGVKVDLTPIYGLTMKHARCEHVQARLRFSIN
# Cytochrome P450 2C9 = Cytochrome P450 2C9 (Homo sapiens, UniProt P11712)
# Chain of Cytochrome P450 2C9 (P11712 whole entry, the tested form may be a part): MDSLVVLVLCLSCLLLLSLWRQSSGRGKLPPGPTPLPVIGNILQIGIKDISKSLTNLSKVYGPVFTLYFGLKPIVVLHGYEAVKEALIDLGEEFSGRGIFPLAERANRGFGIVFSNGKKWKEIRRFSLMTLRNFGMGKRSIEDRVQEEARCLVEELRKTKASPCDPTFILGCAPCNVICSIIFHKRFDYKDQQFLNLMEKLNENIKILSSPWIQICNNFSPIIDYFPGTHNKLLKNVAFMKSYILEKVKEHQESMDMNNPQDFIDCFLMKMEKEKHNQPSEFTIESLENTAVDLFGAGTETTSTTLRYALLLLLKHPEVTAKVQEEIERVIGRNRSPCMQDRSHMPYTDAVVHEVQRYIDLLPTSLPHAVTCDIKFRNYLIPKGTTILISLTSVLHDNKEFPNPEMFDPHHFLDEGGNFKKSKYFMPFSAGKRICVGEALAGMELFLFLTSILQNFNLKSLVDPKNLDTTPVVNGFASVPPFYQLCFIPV
# [4] = molecular target: T2, RNA-binding protein pos-1 (Caenorhabditis elegans, UniProt G5EF15); test: inhibitors of POS-1/mex-3 RNA binding, dose response, biochemical, fluorescence polarization (AID 1964);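 note: purified POS-1 fused to maltose binding protein made in E. coli; potency of compounds blocking POS-1 binding to fluorescent RNA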
# T2 sequence (G5EF15 whole entry): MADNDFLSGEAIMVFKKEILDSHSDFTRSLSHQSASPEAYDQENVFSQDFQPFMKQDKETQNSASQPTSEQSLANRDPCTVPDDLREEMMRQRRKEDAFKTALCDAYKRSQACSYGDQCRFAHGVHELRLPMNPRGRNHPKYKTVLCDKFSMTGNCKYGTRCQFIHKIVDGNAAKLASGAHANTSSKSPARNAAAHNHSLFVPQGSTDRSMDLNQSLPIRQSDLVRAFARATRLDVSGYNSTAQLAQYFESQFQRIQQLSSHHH
# [5] = molecular target: T3, Zinc finger protein mex-5 (Caenorhabditis elegans, UniProt Q9XUB2); test: MEX-5/TCR-2 RNA interaction inhibitors, dose response, biochemical, C. elegans, fluorescence polarization (AID 1960)
# T3 sequence (Q9XUB2 whole entry): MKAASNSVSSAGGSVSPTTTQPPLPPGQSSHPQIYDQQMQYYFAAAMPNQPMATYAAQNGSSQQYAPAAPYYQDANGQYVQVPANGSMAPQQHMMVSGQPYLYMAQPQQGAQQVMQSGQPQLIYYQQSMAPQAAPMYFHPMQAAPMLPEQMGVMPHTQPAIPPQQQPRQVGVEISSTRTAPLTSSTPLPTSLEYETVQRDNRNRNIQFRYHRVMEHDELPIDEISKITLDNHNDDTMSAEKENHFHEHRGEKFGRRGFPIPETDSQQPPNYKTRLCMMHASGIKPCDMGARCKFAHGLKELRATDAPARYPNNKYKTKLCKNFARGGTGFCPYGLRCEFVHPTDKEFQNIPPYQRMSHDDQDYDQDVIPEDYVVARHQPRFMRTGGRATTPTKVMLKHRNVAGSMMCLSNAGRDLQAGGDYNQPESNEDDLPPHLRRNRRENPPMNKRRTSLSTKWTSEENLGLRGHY
# [6] = inhibitors of intracellular T. cruzi replication, confirmation, NIH3T3 host cells, beta-gal luminescence (AID 2044); format: functional, cell-based;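 note: intracellular parasites grown in NIH/3T3 mouse fibroblasts as host cells; luminescent beta-galactosidase reporter signal from transgenic T. cruzi replicating inside host cells; inhibitors lower the luminescence signal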
# [7] = cytotoxicity toward NIH3T3 fibroblasts, dose response, counter-screen, cell-based, ATP luminescence, mouse fibroblasts (AID 2010); format: functional;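 note: cells exposed to compound for about 90 hours before reading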
# [8] = molecular target: T4, Heat shock factor protein 1 (Mus musculus, UniProt P38532); test: inhibition of MG132-induced HSE-luciferase signal, confirmation, cell-based, NIH3T3, luminescence, dose retest (AID 2382); format: functional;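 note: NIH3T3 fibroblasts with HSF1-driven luciferase reporter stressed by proteasome inhibitor MG132; luminescence from HSF1-driven luciferase expression after 8 hours of MG132 stress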
# T4 sequence (P38532 whole entry): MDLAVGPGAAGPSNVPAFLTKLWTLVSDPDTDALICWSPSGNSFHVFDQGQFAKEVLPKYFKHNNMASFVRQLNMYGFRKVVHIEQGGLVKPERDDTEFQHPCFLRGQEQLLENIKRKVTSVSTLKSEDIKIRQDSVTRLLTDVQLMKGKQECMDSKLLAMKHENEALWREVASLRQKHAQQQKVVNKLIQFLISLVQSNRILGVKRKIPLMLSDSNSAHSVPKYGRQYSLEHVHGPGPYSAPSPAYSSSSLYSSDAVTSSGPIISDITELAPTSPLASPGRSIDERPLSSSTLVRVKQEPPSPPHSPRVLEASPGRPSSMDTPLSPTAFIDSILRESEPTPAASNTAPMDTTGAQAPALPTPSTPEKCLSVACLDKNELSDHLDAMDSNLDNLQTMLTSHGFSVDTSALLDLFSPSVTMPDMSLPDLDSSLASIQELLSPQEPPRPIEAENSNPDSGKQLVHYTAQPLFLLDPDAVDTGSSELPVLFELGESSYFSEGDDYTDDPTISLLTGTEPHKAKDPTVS
# [9] = tested on: Streptococcus sp. 'group A'; test: growth inhibition of control SK(-) GAS strain, dose response, counter-screen for streptokinase expression inhibitor project, luminescence, kanamycin, BacTiterGlo, confirmation (AID 1900); format: functional, organism-based
# Streptococcus = test: Group A Streptococcus viability loss, dose response, counter-screen for streptokinase expression inhibitor project, luminescence, BacTiterGlo (AID 1915); format: functional, organism-based;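 note: potency for reduction of bacterial viability or growth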
# INS1 = test: beta cell apoptosis inhibitors, cytokine rescue, dose response, luminescence, retest (AID 449756); format: functional, cell-based; conditions: Rattus norvegicus;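 note: cell death triggered by IL-1 beta plus TNF-alpha plus IFN-gamma mixture; protective hits raise ATP signal compared with cytokine alone wells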
# Cytochrome P450 2C19 = Cytochrome P450 2C19 (Homo sapiens, UniProt P33261); test: Cytochrome panel assay with activity outcomes. Panel member name: p450-cyp2c19 Compounds with AC50 equal or less than 10 uM are considered active; format: functional; conditions: read-out: AC50
# Chain of Cytochrome P450 2C19 (P33261 whole entry): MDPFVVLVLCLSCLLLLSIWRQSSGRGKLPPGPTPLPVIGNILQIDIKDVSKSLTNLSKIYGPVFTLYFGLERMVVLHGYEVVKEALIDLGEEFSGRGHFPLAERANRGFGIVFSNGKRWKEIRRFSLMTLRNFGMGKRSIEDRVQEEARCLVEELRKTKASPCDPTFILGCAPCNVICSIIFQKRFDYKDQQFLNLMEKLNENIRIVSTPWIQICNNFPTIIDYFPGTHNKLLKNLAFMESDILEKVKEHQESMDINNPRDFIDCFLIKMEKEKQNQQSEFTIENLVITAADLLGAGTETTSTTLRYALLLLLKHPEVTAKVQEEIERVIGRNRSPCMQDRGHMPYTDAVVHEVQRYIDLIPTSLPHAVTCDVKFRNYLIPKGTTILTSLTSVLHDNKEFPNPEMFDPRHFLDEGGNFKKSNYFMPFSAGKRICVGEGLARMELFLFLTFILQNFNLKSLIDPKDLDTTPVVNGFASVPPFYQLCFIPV
# Chain of Cytochrome P450 3A4 (P08684 whole entry): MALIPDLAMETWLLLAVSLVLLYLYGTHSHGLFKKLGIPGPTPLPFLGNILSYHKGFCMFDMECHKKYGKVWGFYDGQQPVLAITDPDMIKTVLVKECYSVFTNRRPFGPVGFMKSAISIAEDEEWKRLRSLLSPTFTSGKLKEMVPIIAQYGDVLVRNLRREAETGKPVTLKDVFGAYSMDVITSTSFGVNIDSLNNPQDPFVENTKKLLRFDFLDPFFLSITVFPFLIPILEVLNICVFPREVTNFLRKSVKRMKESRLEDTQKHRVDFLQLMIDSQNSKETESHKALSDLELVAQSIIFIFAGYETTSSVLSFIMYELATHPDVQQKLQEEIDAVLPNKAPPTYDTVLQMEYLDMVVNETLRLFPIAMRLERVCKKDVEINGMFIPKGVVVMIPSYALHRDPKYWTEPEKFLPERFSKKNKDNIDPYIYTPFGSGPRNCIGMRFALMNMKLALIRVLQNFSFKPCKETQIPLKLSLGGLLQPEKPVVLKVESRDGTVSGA
# Chain of Cytochrome P450 2D6 (P10635 whole entry): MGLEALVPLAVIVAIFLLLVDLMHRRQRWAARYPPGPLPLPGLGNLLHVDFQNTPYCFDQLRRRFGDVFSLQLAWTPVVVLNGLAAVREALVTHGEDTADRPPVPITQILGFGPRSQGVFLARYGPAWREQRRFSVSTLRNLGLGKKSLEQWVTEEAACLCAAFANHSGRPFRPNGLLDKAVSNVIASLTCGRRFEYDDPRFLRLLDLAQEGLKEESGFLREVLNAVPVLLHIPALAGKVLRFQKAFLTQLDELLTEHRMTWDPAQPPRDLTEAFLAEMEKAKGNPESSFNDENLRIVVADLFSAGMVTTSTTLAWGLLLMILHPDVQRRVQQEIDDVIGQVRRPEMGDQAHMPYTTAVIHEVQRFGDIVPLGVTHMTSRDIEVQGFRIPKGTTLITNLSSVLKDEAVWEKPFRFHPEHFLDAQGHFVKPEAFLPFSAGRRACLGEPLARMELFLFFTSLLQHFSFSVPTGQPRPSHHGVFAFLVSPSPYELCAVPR
SMILES,AC50 (Cytochrome P450 2D6),EC50 [2],EC50 [3],AC50 (Cytochrome P450 1A2),further results
O=[N+]([O-])c1ccc(Nc2nc3ccccc3s2)cc1,3.16 µM (inconclusive),–,–,–,AC50 (Cytochrome P450 3A4): 5.01 µM (inconclusive)
CCOC(=O)N1CCN(C(=O)CN(c2ccc(OC)cc2)S(C)(=O)=O)CC1,–,83.4 µM (active),> 120 µM (not active),–,EC50 [1]: > 120 µM (not active)
CNCCNS(=O)(=O)c1cccc2cnccc12,5.01 µM (inconclusive),–,–,–,AC50 (Cytochrome P450 3A4): 20 µM (inconclusive)
Cc1ccc(S(=O)(=O)NN2C(=O)/C(=C/c3ccc(C(=O)O)cc3)SC2=S)cc1,–,–,–,–,IC50 (Genome polyprotein): 64.9 µM (active)
Nc1nc(O)c(/N=N\c2ccccc2)c(C(=O)O)n1,–,–,–,1.26 µM (inconclusive),–
COc1ccc(C(=O)N/N=C2/SCC(=O)N2Cc2ccc3c(c2)OCO3)cc1OC,–,–,–,25.1 µM (inconclusive),–
COC(=O)C/C=C\[C@@H](C)[C@@H](/C=N\O[C@@H](C)CN1CCCc2nc(C)c(C)cc21)OC,2.51 µM (inconclusive),–,–,–,AC50 (Cytochrome P450 3A4): 3.16 µM (inconclusive)
Cn1c(SCc2nc(O)c3ccc(C(=O)O)cc3n2)nnc1C(F)(F)F,–,38.9 µM (active),> 120 µM (not active),–,EC50 [1]: > 120 µM (not active)
COc1ccc2nc(C)cc(SCC(=O)NNC(=O)COc3ccc(C)cc3)c2c1,2 µM (inconclusive),–,–,–,AC50 (Cytochrome P450 2C9): 1.78 µM (inconclusive)
COc1cc(C2C(C#N)=C(N)OC3=C2C(=O)CC(C)(C)C3)c([N+](=O)[O-])cc1OC (stereo not given),–,–,–,–,EC50 [4]: 19.5 µM (active); EC50 [5]: 23 µM (inconclusive); IC50 (Genome polyprotein): > 100 µM (active)
NNC(=O)c1[nH]c2ccccc2c1-c1ccccc1,–,> 120 µM (not active),> 120 µM (not active),–,EC50 [1]: > 120 µM (not active)
CN(C)C(=O)c1ccc(-c2ccc3ncnc(NCc4ccccc4)c3c2)cc1,31.6 µM (inconclusive),–,–,–,–
Cc1ccc2sc(N(CCCN(C)C)C(=O)CCS(=O)(=O)c3ccccc3)nc2c1C,–,13.7 µM (active),11.1 µM (active),–,EC50 [1]: 14.3 µM (active); EC50 [6]: 0.226 µM (active); EC50 [7]: 4.17 µM (active)
COc1cccc(-c2cc(NCc3cccnc3)ncn2)c1,25.1 µM (inconclusive),–,–,–,–
CC[C@H](Oc1ccc(Cl)cc1)C(=O)OC1C[C@H]2CC[C@@H](C1)N2C (stereo not given in full),–,–,–,31.6 µM (inconclusive),–
COc1ccc(Nc2nc(N)nc(CSc3nc(C)cc(C)n3)n2)cc1,–,> 120 µM (not active),91.3 µM (active),–,EC50 [1]: 19.8 µM (active); EC50 [8]: > 195 µM (not active)

SMILES,AC50 (Cytochrome P450 2D6),EC50 [2],EC50 [3],AC50 (Cytochrome P450 1A2),further results
COCCn1c(=O)c(-c2cccc(C#N)c2)nc2cnc(Nc3ccccc3)nc21,2.51 µM (inconclusive),–,–,2.51 µM (inconclusive),–
O=C(NCCN1CCN(C(=O)c2cccc(Br)c2)CC1)C(=O)Nc1ccc(Br)cc1,–,18.7 µM (active),65.2 µM (active),–,EC50 [1]: 13.8 µM (active)
CC(C)Oc1ccccc1C1Nc2ccccc2C(=O)N1c1ccc2c(c1)OCCO2 (stereo not given),–,> 120 µM (not active),9.51 µM (active),–,–
CC(C)C[C@H](NC(=O)c1[nH]cnc1C(=O)N[C@@H](CC(C)C)C(=O)OC(C)(C)C)C(=O)OCc1ccccc1,–,15.7 µM (active),8.51 µM (active),–,EC50 [1]: 21.1 µM (active); EC50 [9]: 2.62 µM (active); EC50 (Streptococcus): 6.41 µM (active); AC50 (INS1): 11.8 µM (active)
c1ccc(Oc2cccc(OCCn3cncn3)c2)cc1,–,> 120 µM (not active),> 120 µM (not active),–,EC50 [1]: > 120 µM (not active); EC50 [8]: > 195 µM (not active)
Cc1ccc(-n2nc3ccc(N)cc3n2)c(C)c1,–,20.3 µM (active),16.6 µM (active),–,EC50 [1]: 15.2 µM (active)
COCC(=O)N1CCC2(CCN(Cc3ccccc3)CC2)CC1,25.1 µM (inconclusive),–,–,–,–
O=C(c1cc(C(F)(F)F)cc(C(F)(F)F)c1)N1CCC[C@@]2(CCN(Cc3nccs3)C2)C1,–,–,–,20 µM (inconclusive),–
CC(C)(C)NC(=O)CN(Cc1cccs1)C(=O)CCC(=O)Nc1nccs1,28.2 µM (inconclusive),–,–,–,–
Clc1ccc2c(NCCNc3ccnc4cc(Cl)ccc34)ccnc2c1,–,–,–,5.01 µM (inconclusive),–
CCCCn1c(SCC(=O)Nc2nccs2)nc2ccccc2c1=O,–,–,–,0.2 µM (inconclusive),AC50 (Cytochrome P450 2C19): 0.0708 µM (inconclusive); AC50 (Cytochrome P450 2C9): 0.398 µM (inconclusive)
O[C@@H](COc1ccc(Cl)cc1Cl)CN1CCCC1,–,–,–,5.01 µM (inconclusive),–
CO[C@H]1COC(=O)[C@H]2CCCN2C(=O)C/C=C\[C@@H](C)[C@H](OC)COC(=O)[C@@H](OCc2ccccc2)/C=C\[C@@H]1C,3.16 µM (inconclusive),–,–,–,AC50 (Cytochrome P450 3A4): 3.98 µM (inconclusive)
Cc1ccc2c(c1)[C@@H]1CN(C)CC[C@@H]1N2S(=O)(=O)c1ccc(F)cc1,–,–,–,17.8 µM (inconclusive),AC50 (Cytochrome P450 2C19): 28.2 µM (inconclusive); AC50 (Cytochrome P450 2C9): 0.00562 µM (inconclusive)
COc1cccc(Nc2ncc3nc(-c4ccc(F)cc4)c(=O)n(C)c3n2)c1,–,–,–,3.16 µM (inconclusive),–
CS(=O)(=O)Nc1cccc(-c2ccc3ncnc(NCc4cccnc4)c3c2)c1,20 µM (inconclusive),–,–,–,–

# — ChEMBL document CHEMBL1201862, “PubChem BioAssay data set” (2004)
